Source: patent US8445469B2, “18-methyl-19-nor-17-pregn-4-ene-21,17-carbolactones, as well as pharmaceutical preparations that contain the latter” (Bayer Intellectual Property GmbH, priority 2004, dated 2013)

Tested on: pregnancy maintenance (peripheral gestagenic activity)
Experiment: pregnancy maintenance test in ovariectomized rats
Type: in vivo, rat
Details: ovariectomized pregnant rats, subcutaneous once daily with estrone 5 μg/kg/day, day 8 to day 15 or 21
Source text: Executing the Pregnancy Maintenance Test in Rats:
In pregnant rats, removal of the corpora lutea or castration induces abortion. By exogenous supplying of progestins (gestagens) in combination with a suitable dose of estrogens, pregnancy can be maintained. The pregnancy maintenance test in ovariectomized rats serves to determine peripheral gestagenic activity of a compound.
Rats are paired up during the proestrus overnight. Mating is monitored on the morning of the following day by vaginal smear inspection. The presence of sperm is considered in this case as day 1 of the beginning of pregnancy. On day 8 of pregnancy, the animals are ovariectomized under ether anesthesia. […]
At the end of the test (day 15 or day 21), the animals are sacrificed under CO2 atmosphere, and live fetuses (fetuses with beating hearts) and implantation sites (early resorptions and dead fetuses including autolysis and atrophic placentas) in both uterine horns are counted. […] In uteri without fetuses or implantation sites, the number of nidation sites is determined by staining with 10% ammonium sulfide solution. The pregnancy maintenance rate is calculated as the quotient of the number of living fetuses and the total number of nidation sites (both resorbed and dead fetuses as well as nidation sites). […]

For `CCC12CCC3C4CCC(=O)C=C4C4CC4C3C1C1CC1C21CCC(=O)O1` (stereo not drawn) [compound 3a, 18-Methyl-6α,7α-15β,16β-dimethylene-3-oxo-19-nor-17-pregn-4-ene-21,17-carbolactone], the “pregnancy-maintaining dose (ED50)” value was 120 µg/kg/day.
